Columns and labels:
Experiment in all cases: biochemical
Details in all cases: read-out: %Ctrl @ 1000nM
[1] = target: T1, CTK (Homo sapiens, UniProt P42679)
T1 construct: gene MATK

[2] = target: EGFR(E746-A750del) (Homo sapiens, UniProt P00533, DEL746-750)
[3] = target: CAMKK1 (Homo sapiens, UniProt Q8N5S9)
[4] = target: PRKD2 (Homo sapiens, UniProt Q9BZL6)
[5] = target: HIPK3 (Homo sapiens, UniProt Q9H422)
[6] = target: T2, GCN2(Kin.Dom.2,S808G) (Homo sapiens, UniProt Q9P2K8, S808G)
T2 construct: gene EIF2AK4

[7] = target: KIT-autoinhibited (Homo sapiens, UniProt P10721)
[8] = target: PIK3CB (Homo sapiens, UniProt P42338)
[9] = target: T3, PFTAIRE2 (Homo sapiens, UniProt Q96Q40)
T3 construct: gene CDK15

[10] = target: T4, MEK4 (Homo sapiens, UniProt P45985)
T4 construct: gene MAP2K4

[11] = target: BMPR1A (Homo sapiens, UniProt P36894)
[12] = target: TGFBR2 (Homo sapiens, UniProt P37173)
[13] = target: SLK (Homo sapiens, UniProt Q9H2G2)
[14] = target: MAP4K3 (Homo sapiens, UniProt Q8IVH8)
[15] = target: T5, SgK110 (Homo sapiens, UniProt P0C264)
T5 construct: gene SBK3

[16] = target: MAP3K4 (Homo sapiens, UniProt Q9Y6R4)
[17] = target: DAPK1 (Homo sapiens, UniProt P53355)
[18] = target: PKN2 (Homo sapiens, UniProt Q16513)
[19] = target: MKNK2 (Homo sapiens, UniProt Q9HBH9)
[20] = target: ABL1(H396P)-phosphorylated (Homo sapiens, UniProt P00519, H396P)
[21] = target: ABL1(F317L)-nonphosphorylated (Homo sapiens, UniProt P00519, F317L)
[22] = target: AKT1 (Homo sapiens, UniProt P31749)
[23] = target: FGFR1 (Homo sapiens, UniProt P11362)
[24] = target: MERTK (Homo sapiens, UniProt Q12866)
[25] = target: ALK (Homo sapiens, UniProt Q9UM73)
[26] = target: HIPK2 (Homo sapiens, UniProt Q9H2X6)
[27] = target: DDR2 (Homo sapiens, UniProt Q16832)
[28] = target: MAP3K3 (Homo sapiens, UniProt Q99759)
[29] = target: CDK7 (Homo sapiens, UniProt P50613)
[30] = target: T6, RSK4(Kin.Dom.1-N-terminal) (Homo sapiens, UniProt Q9UK32)
T6 construct: gene RPS6KA6

[31] = target: T7, HPK1 (Homo sapiens, UniProt Q92918)
T7 construct: gene MAP4K1

[32] = target: FER (Homo sapiens, UniProt P16591)
[33] = target: T8, TRKA (Homo sapiens, UniProt P04629)
T8 construct: gene NTRK1

[34] = target: ABL1(F317L)-phosphorylated (Homo sapiens, UniProt P00519, F317L)
[35] = target: IRAK1 (Homo sapiens, UniProt P51617)

Chain of HIPK2 (Q9H2X6 whole entry): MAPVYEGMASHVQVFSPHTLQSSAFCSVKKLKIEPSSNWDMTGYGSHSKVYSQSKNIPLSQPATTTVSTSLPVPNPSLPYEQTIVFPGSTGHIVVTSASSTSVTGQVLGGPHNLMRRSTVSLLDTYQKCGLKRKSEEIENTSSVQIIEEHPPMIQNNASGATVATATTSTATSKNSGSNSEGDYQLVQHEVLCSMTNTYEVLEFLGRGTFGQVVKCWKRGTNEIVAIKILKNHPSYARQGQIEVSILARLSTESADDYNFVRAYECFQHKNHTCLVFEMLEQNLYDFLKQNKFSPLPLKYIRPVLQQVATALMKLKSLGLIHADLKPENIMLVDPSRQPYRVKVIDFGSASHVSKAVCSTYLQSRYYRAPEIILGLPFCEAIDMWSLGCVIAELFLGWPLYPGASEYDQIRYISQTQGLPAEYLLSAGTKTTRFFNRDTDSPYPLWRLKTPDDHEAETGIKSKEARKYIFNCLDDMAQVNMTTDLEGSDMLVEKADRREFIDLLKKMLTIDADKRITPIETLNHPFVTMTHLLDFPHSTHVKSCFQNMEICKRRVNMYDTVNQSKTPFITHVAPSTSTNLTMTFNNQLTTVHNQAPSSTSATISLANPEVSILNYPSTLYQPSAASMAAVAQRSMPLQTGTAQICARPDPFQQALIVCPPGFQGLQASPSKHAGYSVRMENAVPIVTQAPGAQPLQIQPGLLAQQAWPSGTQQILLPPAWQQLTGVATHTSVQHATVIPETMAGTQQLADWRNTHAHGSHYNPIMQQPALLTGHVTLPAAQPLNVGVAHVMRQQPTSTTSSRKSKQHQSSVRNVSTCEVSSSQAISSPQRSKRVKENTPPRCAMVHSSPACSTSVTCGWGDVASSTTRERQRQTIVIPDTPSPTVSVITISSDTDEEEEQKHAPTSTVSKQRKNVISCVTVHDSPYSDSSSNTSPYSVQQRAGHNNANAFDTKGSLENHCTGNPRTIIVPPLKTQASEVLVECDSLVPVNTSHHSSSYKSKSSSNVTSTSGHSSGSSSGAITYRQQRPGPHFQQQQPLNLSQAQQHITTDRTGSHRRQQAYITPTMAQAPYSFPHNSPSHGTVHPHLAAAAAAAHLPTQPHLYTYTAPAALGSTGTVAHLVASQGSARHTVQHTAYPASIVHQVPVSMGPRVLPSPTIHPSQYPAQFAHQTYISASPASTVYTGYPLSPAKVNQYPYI
T2 sequence (Q9P2K8 whole entry S808G): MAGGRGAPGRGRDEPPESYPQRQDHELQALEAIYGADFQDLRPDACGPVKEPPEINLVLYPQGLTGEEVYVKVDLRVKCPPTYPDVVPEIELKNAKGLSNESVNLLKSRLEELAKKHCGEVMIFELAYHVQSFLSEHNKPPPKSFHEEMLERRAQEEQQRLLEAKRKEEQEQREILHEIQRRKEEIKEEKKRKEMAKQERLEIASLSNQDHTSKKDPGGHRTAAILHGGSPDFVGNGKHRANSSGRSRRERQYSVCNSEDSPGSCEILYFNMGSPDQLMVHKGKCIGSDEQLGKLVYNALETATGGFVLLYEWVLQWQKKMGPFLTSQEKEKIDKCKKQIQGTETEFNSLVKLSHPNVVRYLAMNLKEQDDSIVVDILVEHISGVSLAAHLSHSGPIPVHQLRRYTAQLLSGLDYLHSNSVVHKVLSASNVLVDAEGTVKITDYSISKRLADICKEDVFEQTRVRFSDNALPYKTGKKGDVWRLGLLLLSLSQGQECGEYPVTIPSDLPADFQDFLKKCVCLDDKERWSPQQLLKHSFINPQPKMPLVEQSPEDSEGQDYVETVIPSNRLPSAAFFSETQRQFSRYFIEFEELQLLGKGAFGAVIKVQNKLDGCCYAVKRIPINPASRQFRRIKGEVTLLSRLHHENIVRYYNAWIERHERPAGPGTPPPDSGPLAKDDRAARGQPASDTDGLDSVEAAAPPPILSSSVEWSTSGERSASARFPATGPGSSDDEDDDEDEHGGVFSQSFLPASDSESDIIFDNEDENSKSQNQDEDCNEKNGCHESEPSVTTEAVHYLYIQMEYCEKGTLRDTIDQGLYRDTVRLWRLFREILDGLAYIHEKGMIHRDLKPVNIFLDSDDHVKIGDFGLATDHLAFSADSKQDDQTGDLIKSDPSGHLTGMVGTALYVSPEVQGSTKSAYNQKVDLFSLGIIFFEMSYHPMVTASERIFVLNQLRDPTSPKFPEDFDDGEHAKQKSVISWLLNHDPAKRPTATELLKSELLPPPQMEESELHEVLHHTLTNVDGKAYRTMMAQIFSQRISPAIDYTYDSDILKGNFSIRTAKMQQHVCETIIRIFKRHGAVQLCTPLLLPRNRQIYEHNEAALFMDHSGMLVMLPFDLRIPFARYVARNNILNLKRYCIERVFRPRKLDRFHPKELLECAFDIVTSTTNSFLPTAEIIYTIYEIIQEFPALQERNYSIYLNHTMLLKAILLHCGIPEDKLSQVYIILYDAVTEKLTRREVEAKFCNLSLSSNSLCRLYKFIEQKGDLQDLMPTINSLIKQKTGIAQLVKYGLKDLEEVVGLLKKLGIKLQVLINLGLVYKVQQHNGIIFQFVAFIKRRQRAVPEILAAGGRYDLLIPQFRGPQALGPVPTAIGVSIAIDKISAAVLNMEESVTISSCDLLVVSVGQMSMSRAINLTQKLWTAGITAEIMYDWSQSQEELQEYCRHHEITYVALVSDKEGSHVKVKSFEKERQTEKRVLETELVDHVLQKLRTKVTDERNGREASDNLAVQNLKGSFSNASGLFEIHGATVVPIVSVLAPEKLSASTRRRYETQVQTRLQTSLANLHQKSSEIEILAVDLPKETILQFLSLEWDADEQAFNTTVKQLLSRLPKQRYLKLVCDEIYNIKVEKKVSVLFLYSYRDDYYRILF
Chain of PRKD2 (Q9BZL6 whole entry): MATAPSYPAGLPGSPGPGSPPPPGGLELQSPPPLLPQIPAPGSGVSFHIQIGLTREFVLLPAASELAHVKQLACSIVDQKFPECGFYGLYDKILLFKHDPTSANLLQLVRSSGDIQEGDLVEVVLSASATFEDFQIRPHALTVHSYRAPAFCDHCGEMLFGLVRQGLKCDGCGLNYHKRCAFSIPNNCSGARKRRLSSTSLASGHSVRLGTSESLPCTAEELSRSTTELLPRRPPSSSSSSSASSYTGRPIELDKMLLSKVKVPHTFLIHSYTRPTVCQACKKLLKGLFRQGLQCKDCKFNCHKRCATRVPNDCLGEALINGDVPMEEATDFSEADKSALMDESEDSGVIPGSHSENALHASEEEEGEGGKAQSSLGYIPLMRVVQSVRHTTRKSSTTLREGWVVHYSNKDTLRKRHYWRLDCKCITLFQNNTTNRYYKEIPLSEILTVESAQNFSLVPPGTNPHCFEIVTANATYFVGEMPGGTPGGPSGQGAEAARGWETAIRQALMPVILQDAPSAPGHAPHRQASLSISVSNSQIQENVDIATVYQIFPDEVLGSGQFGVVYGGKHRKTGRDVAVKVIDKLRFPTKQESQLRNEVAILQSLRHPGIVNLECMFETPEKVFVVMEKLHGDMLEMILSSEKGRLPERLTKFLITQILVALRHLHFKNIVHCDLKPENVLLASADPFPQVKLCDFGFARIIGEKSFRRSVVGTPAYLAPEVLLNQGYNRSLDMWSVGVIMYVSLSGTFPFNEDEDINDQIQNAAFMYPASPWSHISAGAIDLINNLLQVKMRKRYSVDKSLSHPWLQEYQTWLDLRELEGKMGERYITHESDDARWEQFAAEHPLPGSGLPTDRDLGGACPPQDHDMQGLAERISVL
T4 sequence (P45985 whole entry): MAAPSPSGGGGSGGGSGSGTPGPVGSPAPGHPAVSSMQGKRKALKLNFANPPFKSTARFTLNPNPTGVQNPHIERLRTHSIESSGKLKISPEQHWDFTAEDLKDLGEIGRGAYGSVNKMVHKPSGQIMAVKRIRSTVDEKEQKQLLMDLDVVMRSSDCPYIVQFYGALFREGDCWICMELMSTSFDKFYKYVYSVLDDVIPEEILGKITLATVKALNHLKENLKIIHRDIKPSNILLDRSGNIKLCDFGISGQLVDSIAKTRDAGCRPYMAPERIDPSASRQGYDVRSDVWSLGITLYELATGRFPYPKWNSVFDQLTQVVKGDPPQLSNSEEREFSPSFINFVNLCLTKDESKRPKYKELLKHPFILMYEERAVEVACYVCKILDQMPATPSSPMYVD
T8 sequence (P04629 whole entry): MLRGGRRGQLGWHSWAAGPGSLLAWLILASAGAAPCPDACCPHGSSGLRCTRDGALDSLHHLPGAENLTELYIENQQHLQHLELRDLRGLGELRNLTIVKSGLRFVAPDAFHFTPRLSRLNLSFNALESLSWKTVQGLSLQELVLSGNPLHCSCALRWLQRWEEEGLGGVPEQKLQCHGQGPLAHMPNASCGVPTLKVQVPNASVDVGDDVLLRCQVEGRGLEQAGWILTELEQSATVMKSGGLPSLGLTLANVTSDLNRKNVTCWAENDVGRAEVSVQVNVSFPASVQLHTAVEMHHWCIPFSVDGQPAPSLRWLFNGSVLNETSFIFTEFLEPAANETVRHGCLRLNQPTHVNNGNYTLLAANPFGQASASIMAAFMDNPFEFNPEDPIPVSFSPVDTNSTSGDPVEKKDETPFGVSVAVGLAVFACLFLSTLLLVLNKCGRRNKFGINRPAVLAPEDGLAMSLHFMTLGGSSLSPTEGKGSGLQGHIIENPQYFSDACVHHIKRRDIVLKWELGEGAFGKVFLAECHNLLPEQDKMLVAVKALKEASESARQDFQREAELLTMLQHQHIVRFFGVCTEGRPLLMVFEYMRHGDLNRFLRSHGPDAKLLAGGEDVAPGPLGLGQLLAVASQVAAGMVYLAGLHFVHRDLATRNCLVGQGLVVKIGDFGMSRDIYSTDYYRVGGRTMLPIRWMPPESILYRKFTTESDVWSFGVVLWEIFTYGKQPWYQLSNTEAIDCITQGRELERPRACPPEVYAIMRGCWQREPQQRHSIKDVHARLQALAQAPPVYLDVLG

For Cc1cn(-c2cc(NC(=O)c3ccc4c(c3)CN(c3cncnc3)C[C@@H]4C)cc(C(F)(F)F)c2)cn1 [Compound 6j], the remaining activity at 1 µM [1] was 100%, the remaining activity at 1 µM [2] was 94% and the remaining activity at 1 µM [3] was 64%. It also gave a remaining activity at 1 µM [4] of 92%, a remaining activity at 1 µM [5] of 86% and a remaining activity at 1 µM [6] of 100%. For the same molecule, the remaining activity at 1 µM [7] was 100%, the remaining activity at 1 µM [8] was 100% and the remaining activity at 1 µM [9] was 86%. The remaining activity at 1 µM [10] was 96%, the remaining activity at 1 µM [11] was 93% and the remaining activity at 1 µM [12] was 94%. The remaining activity at 1 µM [13] was 71%, the remaining activity at 1 µM [14] was 96% and the remaining activity at 1 µM [15] was 98%. It also gave a remaining activity at 1 µM [16] of 56%, a remaining activity at 1 µM [17] of 100% and a remaining activity at 1 µM [18] of 95%. For the same molecule, the remaining activity at 1 µM [19] was 100%, the remaining activity at 1 µM [20] was 100% and the remaining activity at 1 µM [21] was 38%. The remaining activity at 1 µM [22] was 96%, the remaining activity at 1 µM [23] was 79% and the remaining activity at 1 µM [24] was 61%. It also gave a remaining activity at 1 µM [25] of 95%, a remaining activity at 1 µM [26] of 100% and a remaining activity at 1 µM [27] of 0.35%. For the same molecule, the remaining activity at 1 µM [28] was 85%, the remaining activity at 1 µM [29] was 80% and the remaining activity at 1 µM [30] was 100%. It also gave a remaining activity at 1 µM [31] of 100%, a remaining activity at 1 µM [32] of 92% and a remaining activity at 1 µM [33] of 3.2%. For the same molecule, the remaining activity at 1 µM [34] was 74% and the remaining activity at 1 µM [35] was 100%.

Reference: article PMC5053573, “Structure-Based Design of Tetrahydroisoquinoline-7-carboxamides as Selective Discoidin Domain Receptor 1 (DDR1) Inhibitors” (Journal of Medicinal Chemistry, 2016)
